Experimental data from PubChem BioAssay (NCI).
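48-hour exposure; five concentrations; linearly interpolated endpoints. GI50 is the concentration that inhibits growth by half. The concentration for full growth arrest is given as TGI.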

Experiments:
Experiment in all cases: NCI-60 cell line screen, 48 h
786-0 renal = test system: 786-0 renal
A498 renal = test system: A498 renal
A549 NSCLC = test system: A549 NSCLC
ACHN renal = test system: ACHN renal
BT-549 breast = test system: BT-549 breast
CAKI-1 renal = test system: CAKI-1 renal
CCRF-CEM leukemia = test system: CCRF-CEM leukemia
COLO 205 colon = test system: COLO 205 colon
DU-145 prostate = test system: DU-145 prostate
EKVX NSCLC = test system: EKVX NSCLC
HCC-2998 colon = test system: HCC-2998 colon
HCT-116 colon = test system: HCT-116 colon
HCT-15 colon = test system: HCT-15 colon
HL-60(TB) leukemia = test system: HL-60(TB) leukemia
HOP-62 NSCLC = test system: HOP-62 NSCLC
HOP-92 NSCLC = test system: HOP-92 NSCLC
HS 578T breast = test system: HS 578T breast
HT29 colon = test system: HT29 colon
IGROV1 ovarian = test system: IGROV1 ovarian
K-562 leukemia = test system: K-562 leukemia
KM12 colon = test system: KM12 colon
LOX IMVI melanoma = test system: LOX IMVI melanoma
M14 melanoma = test system: M14 melanoma
MALME-3M melanoma = test system: MALME-3M melanoma
MCF7 breast = test system: MCF7 breast
MDA-MB-231 breast = test system: MDA-MB-231 breast
MDA-MB-435 = test system: MDA-MB-435
MDA-MB-468 breast = test system: MDA-MB-468 breast
MOLT-4 leukemia = test system: MOLT-4 leukemia
NCI-H226 lung = test system: NCI-H226 lung
NCI-H23 lung = test system: NCI-H23 lung
NCI-H460 lung = test system: NCI-H460 lung
NCI-H522 lung = test system: NCI-H522 lung
NCI/ADR-RES ovarian = test system: NCI/ADR-RES ovarian
OVCAR-3 ovarian = test system: OVCAR-3 ovarian
OVCAR-4 ovarian = test system: OVCAR-4 ovarian
OVCAR-5 ovarian = test system: OVCAR-5 ovarian
OVCAR-8 ovarian = test system: OVCAR-8 ovarian
PC-3 prostate = test system: PC-3 prostate
RPMI-8226 leukemia = test system: RPMI-8226 leukemia
RXF 393 renal = test system: RXF 393 renal
SF-268 CNS = test system: SF-268 CNS
SF-295 CNS = test system: SF-295 CNS
SF-539 CNS = test system: SF-539 CNS
SK-MEL-2 melanoma = test system: SK-MEL-2 melanoma
SK-MEL-28 melanoma = test system: SK-MEL-28 melanoma
SK-MEL-5 melanoma = test system: SK-MEL-5 melanoma
SK-OV-3 ovarian = test system: SK-OV-3 ovarian
SN12C renal = test system: SN12C renal
SNB-19 CNS = test system: SNB-19 CNS
SNB-75 CNS = test system: SNB-75 CNS
SR leukemia = test system: SR leukemia
SW-620 colon = test system: SW-620 colon
T-47D breast = test system: T-47D breast
TK-10 renal = test system: TK-10 renal
U251 CNS = test system: U251 CNS
UACC-257 melanoma = test system: UACC-257 melanoma
UACC-62 melanoma = test system: UACC-62 melanoma
UO-31 renal = test system: UO-31 renal

SMILES: COc1ccccc1-n1cc(C#N)c(N)c1C(=O)c1ccc(Cl)cc1Cl
- GI50 (786-0 renal): 7.12 µM
- TGI (786-0 renal): > 100 µM
- GI50 (A498 renal): 72 µM
- TGI (A498 renal): > 100 µM
- GI50 (A549 NSCLC): 7.39 µM
- TGI (A549 NSCLC): > 100 µM
- GI50 (ACHN renal): 7.79 µM
- TGI (ACHN renal): > 100 µM
- GI50 (BT-549 breast): 3.41 µM
- TGI (BT-549 breast): 58.5 µM
- GI50 (CAKI-1 renal): 4.7 µM
- TGI (CAKI-1 renal): 28.4 µM
- GI50 (CCRF-CEM leukemia): 4.68 µM
- TGI (CCRF-CEM leukemia): > 100 µM
- GI50 (COLO 205 colon): 5.7 µM
- TGI (COLO 205 colon): > 100 µM
- GI50 (DU-145 prostate): 9.73 µM
- TGI (DU-145 prostate): > 100 µM
- GI50 (EKVX NSCLC): 8.24 µM
- TGI (EKVX NSCLC): > 100 µM
- GI50 (HCC-2998 colon): 12.4 µM
- TGI (HCC-2998 colon): > 100 µM
- GI50 (HCT-116 colon): 4.02 µM
- TGI (HCT-116 colon): 28.7 µM
- GI50 (HCT-15 colon): 3.62 µM
- TGI (HCT-15 colon): 64.9 µM
- GI50 (HL-60(TB) leukemia): 3.15 µM
- TGI (HL-60(TB) leukemia): 70.4 µM
- GI50 (HOP-62 NSCLC): 6.4 µM
- TGI (HOP-62 NSCLC): 87.7 µM
- GI50 (HOP-92 NSCLC): 16.8 µM
- TGI (HOP-92 NSCLC): > 100 µM
- GI50 (HS 578T breast): 3.02 µM
- TGI (HS 578T breast): 58.1 µM
- GI50 (HT29 colon): 3.18 µM
- TGI (HT29 colon): > 100 µM
- GI50 (IGROV1 ovarian): 7.49 µM
- TGI (IGROV1 ovarian): > 100 µM
- GI50 (K-562 leukemia): 3.63 µM
- TGI (K-562 leukemia): > 100 µM
- GI50 (KM12 colon): 3.9 µM
- TGI (KM12 colon): > 100 µM
- GI50 (LOX IMVI melanoma): 4.89 µM
- TGI (LOX IMVI melanoma): > 100 µM
- GI50 (M14 melanoma): 3.27 µM
- TGI (M14 melanoma): > 100 µM
- GI50 (MALME-3M melanoma): 4.2 µM
- TGI (MALME-3M melanoma): > 100 µM
- GI50 (MCF7 breast): 3.94 µM
- TGI (MCF7 breast): 35.2 µM
- GI50 (MDA-MB-231 breast): 9.05 µM
- TGI (MDA-MB-231 breast): > 100 µM
- GI50 (MDA-MB-435): 1.92 µM
- TGI (MDA-MB-435): 4.41 µM
- GI50 (MDA-MB-468 breast): 2.48 µM
- TGI (MDA-MB-468 breast): 8.82 µM
- GI50 (MOLT-4 leukemia): 4.84 µM
- TGI (MOLT-4 leukemia): > 100 µM
- GI50 (NCI-H226 lung): 5.79 µM
- TGI (NCI-H226 lung): 64.3 µM
- GI50 (NCI-H23 lung): 7.55 µM
- TGI (NCI-H23 lung): > 100 µM
- GI50 (NCI-H460 lung): 4.66 µM
- TGI (NCI-H460 lung): > 100 µM
- GI50 (NCI-H522 lung): 1.87 µM
- TGI (NCI-H522 lung): 5.12 µM
- GI50 (NCI/ADR-RES ovarian): 3.55 µM
- TGI (NCI/ADR-RES ovarian): 64.2 µM
- GI50 (OVCAR-3 ovarian): 3.86 µM
- TGI (OVCAR-3 ovarian): 18.6 µM
- GI50 (OVCAR-4 ovarian): 8.96 µM
- TGI (OVCAR-4 ovarian): > 100 µM
- GI50 (OVCAR-5 ovarian): 9.71 µM
- TGI (OVCAR-5 ovarian): > 100 µM
- GI50 (OVCAR-8 ovarian): 21 µM
- TGI (OVCAR-8 ovarian): > 100 µM
- GI50 (PC-3 prostate): 5.6 µM
- TGI (PC-3 prostate): > 100 µM
- GI50 (RPMI-8226 leukemia): 9.39 µM
- TGI (RPMI-8226 leukemia): > 100 µM
- GI50 (RXF 393 renal): 4.37 µM
- TGI (RXF 393 renal): 39.3 µM
- GI50 (SF-268 CNS): 9.77 µM
- TGI (SF-268 CNS): > 100 µM
- GI50 (SF-295 CNS): 3.72 µM
- TGI (SF-295 CNS): 27 µM
- GI50 (SF-539 CNS): 3.37 µM
- TGI (SF-539 CNS): 11.5 µM
- GI50 (SK-MEL-2 melanoma): 2.69 µM
- TGI (SK-MEL-2 melanoma): 7.5 µM
- GI50 (SK-MEL-28 melanoma): 7.58 µM
- TGI (SK-MEL-28 melanoma): > 100 µM
- GI50 (SK-MEL-5 melanoma): 4.84 µM
- TGI (SK-MEL-5 melanoma): > 100 µM
- GI50 (SK-OV-3 ovarian): 3.36 µM
- TGI (SK-OV-3 ovarian): 28.3 µM
- GI50 (SN12C renal): 5.24 µM
- TGI (SN12C renal): > 100 µM
- GI50 (SNB-19 CNS): 6.6 µM
- TGI (SNB-19 CNS): 61.6 µM
- GI50 (SNB-75 CNS): 2.61 µM
- TGI (SNB-75 CNS): 8.54 µM
- GI50 (SR leukemia): 3.53 µM
- TGI (SR leukemia): > 100 µM
- GI50 (SW-620 colon): 3.98 µM
- TGI (SW-620 colon): > 100 µM
- GI50 (T-47D breast): 4.53 µM
- TGI (T-47D breast): > 100 µM
- GI50 (TK-10 renal): 52.9 µM
- TGI (TK-10 renal): > 100 µM
- GI50 (U251 CNS): 4.45 µM
- TGI (U251 CNS): > 100 µM
- GI50 (UACC-257 melanoma): 6.31 µM
- TGI (UACC-257 melanoma): > 100 µM
- GI50 (UACC-62 melanoma): 3.67 µM
- TGI (UACC-62 melanoma): 42.8 µM
- GI50 (UO-31 renal): 7.87 µM
- TGI (UO-31 renal): > 100 µM
